One data set deals with T1, RgNanH (Mediterraneibacter gnavus (Ruminococcus gnavus), UniProt A7B557).
T1 sequence (A7B557 26-723): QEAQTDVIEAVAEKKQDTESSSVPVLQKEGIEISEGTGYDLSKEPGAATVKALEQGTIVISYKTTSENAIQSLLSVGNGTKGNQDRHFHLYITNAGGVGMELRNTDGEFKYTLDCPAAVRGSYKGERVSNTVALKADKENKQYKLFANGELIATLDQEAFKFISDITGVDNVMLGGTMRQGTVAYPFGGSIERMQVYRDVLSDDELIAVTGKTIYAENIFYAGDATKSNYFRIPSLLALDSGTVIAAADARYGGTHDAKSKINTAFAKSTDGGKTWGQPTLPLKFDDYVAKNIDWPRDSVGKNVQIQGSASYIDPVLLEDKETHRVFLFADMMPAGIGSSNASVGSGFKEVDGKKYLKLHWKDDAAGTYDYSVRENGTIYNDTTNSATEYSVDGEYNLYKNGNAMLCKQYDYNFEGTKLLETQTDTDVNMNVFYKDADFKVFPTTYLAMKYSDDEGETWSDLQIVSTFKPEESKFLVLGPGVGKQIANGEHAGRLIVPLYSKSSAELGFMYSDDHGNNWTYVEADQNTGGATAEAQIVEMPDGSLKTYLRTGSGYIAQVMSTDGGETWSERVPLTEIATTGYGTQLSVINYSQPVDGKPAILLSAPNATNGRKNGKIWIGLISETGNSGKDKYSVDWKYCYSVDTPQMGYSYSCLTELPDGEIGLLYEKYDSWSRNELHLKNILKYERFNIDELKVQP
The experiment in a line: Inhibition of RgNanH activity against 4MU-Neu5Ac by neuraminidase inhibitors. Format: biochemical, Ruminococcus gnavus ATCC 29149. The conditions noted are these: 4MU-Neu5Ac 0.51 mM, 1 nM enzyme; Neu5Ac 0-0.3 mM, Lac 0-1.5 mM; pH 6.5, 37 °C. On the procedure: Figure 1 Kinetic analysis of the hydrolysis of sialylated substrates by RgNanH in presence or absence of inhibitors. Substrate (a) 4MU-Neu5Ac or (b) PNP-Neu5Ac was incubated with RgNanH ([…] and 0.43 nM, respectively) at 37 °C, pH 6.5 and the release of product measured using a plate reader. (c) Inhibition of RgNanH (1.00 nM) incubated with 4MU-Neu5Ac (0.51 mM) by zanamivir (●), Neu5Ac2en (▪), siastatin B (▴) and OC (♦), the rates are normalized to a % of the uninhibited rate. [I] is the inhibitor concentration. (d) 3′SL was incubated with RgNanH (2.25 nM) and the release of product measured by HPAEC-PAD. Experiments were done at least in duplicate (usually triplicate) and the error bars show the s.e.m.
The purified enzymes were incubated with the substrate in buffer made from 20 mM Na2HPO4 and 20 mM NaH2PO4 adjusted to pH 6.5 containing 1 mg ml^−1 BSA at 37 °C unless otherwise stated. For 4MU-Neu5Ac, the progression of the reaction was monitored by the release of the MU using a 96-well plate reader (BMG Labtech, Ortenberg, Germany) using fluorescence with an excitation at 340 nm and an emission at 420 nm. For determining the optimal temperature, the assay was carried out in 20 mM PBS at pH 7.4. For determining the optimal pH, the assay was carried out at 37 °C using buffer made from 20 mM Na2HPO4 and 20 mM NaH2PO4 in varying proportions to obtain the desired pH. PNP release from PNP-Neu5Ac was monitored in a similar way measuring absorbance at 405 nm every 60 s. For 3′SL, the reaction was monitored by HPAEC-PAD. An aliquot of the reaction was removed from the main reaction volume at the reaction stopped by boiling for 20 min, the enzyme was then removed by centrifugation at 17,000g for 10 min and filtration with a 0.2-μm filter (Millipore, Billerica, USA). The sugars were separated by HPAEC with an isocratic gradient of 100 mM NaOH and 100 mM NaAC at 1 ml min^−1 on a CarboPac PA1 protected with a guard column and detected using PAD on a Dionex ICS5000 system (Thermo Scientific, Hemel Hempstead, UK). The column was cleaned with 10 ml of 500 mM NaOH and 500 mM NaAc, and the column was re-equilibrated with 100 mM NaOH and 100 mM NaAc. An internal standard of fucose was used to quantify the results. […]

Data set [1] in a line: Spontaneous interconversion of 2,7-anhydro-Neu5Ac and Neu5Ac by 1H NMR. Format: physicochemical. The following applies: up to 24 h at 37 °C. On the procedure: The products of the reaction were thus further monitored by ^1H nuclear magnetic resonance (NMR). […] (Fig. 3). These peaks are characteristic of 2,7-anhydro-α-N-acetylneuraminic acid (2,7-anhydro-Neu5Ac) and arise from the protons in positions 6 and 7 (Fig. 3a). Peaks corresponding to 2,7-anhydro-Neu5Ac were observed when RgNanH was incubated in presence of 4MU-Neu5Ac (Fig. 3a) or 3′SL (Fig. 3b). […] The signals of 2,7-anhydro-Neu5Ac and their chemical shifts are shown in Supplementary Table 1. This product was absent in control experiments using A. muciniphila sialidases (AkmNan0625 and AkmNan1835) or in absence of enzyme, confirming the specificity of the enzymatic reaction (Supplementary Fig. 5).
Extracts (400 μl) were mixed with 200 μl of D2O and 20 μl of a solution of D2O containing 1 mM of TSP (sodium 3-(trimethylsilyl)-propionate-d4). Samples (500 μl) were transferred into a 5-mm NMR tube for spectral acquisition. The ^1H NMR spectra were recorded at 600 MHz on a Bruker Avance spectrometer (Bruker BioSpin GmbH, Rheinstetten, Germany) running Topspin 2.0 software, and were fitted with a cryoprobe and a 60-slot autosampler. Each ^1H NMR spectrum was acquired with 128 scans, a spectral width of 8,012.8 Hz, an acquisition time of 2.04 s and a relaxation delay of 2.0 s. […]

The next data set concerns R. gnavus ATCC 29149. Further details: method as in PMID 24204617. The conditions noted are these: cited from earlier work.

Take `CC(=O)N[C@H]1[C@H]([C@H](O)[C@H](O)CO)OC(O)(C(=O)O)C[C@@H]1O` (stereo partly shown) [Neu5Ac, sialic acid]: at RgNanH, the “Inhibition of RgNanH” value is “not inhibited”. Further, the “spontaneous conversion between 2,7-anhydro-Neu5Ac and Neu5Ac” value in data set [1] is “no evidence of spontaneous conversion”. Also, the “ability of the bacteria to grow on the substrate” value with R. gnavus ATCC 29149 (R. gnavus ATCC 29149) is “not”. Moreover, the “growth on sole carbon source” value with R. gnavus ATCC 29149 (R. gnavus ATCC 29149 and E1) is recorded as “could not grow”.

The record behind these values is publication PMC4510645, “Discovery of intramolecular trans-sialidases in human gut microbiota suggests novel mechanisms of mucosal adaptation” (Nature Communications, 2015).
